One test concerns aortic ring. Briefly: Aortic ring assay (capillary growth ex vivo in collagen matrix gel). The test is classed as cell-based, rat. As to conditions: for neovascularization effect, each agent alone / angiogenetic effect, each agent alone: R002L103 20 μg; for aortic ring neovascularization in presence of G-protein inhibitor PTX / aortic ring neovascularization: S1P 100 μm, R002L103 20 μm, FIG. 4; for aortic ring neovascularization in presence of G-protein inhibitor PTX: PTX 100 nm/ml; for aortic ring neovascularization: without PTX; for angiogenetic effect, each agent alone: VEGF 12 nm/ml. Here is the method:
The following are suitable in vivo or ex vivo modes for angiogenesis: • (1) Aortic ring—where sprouting of newly formed blood vessels is tested whole mounts of aortic rings obtained from rats (see below) • (2) Eye assay—where formation of new blood vessels in the cornea of the animal as a response to an FGF-implanted pellet is determined (see below). • (3) Sponge assay—where infiltration of new blood vessels into a sponge implanted s.c. in an experimental animal is determined (see below) • (4) Regression of pre-formed vasculature in tumors (Benjamin L. E. and Kesshet E. PNAS, 94, 8761-8766, (1997)). • (5) Re-establishment of circulation in dissected vessels in the limbs of experimental animals. Experimental Procedures: 1. Aortic Ring-Assay:
The modification of previously described assay (Nicosia, R. F. and Ottinetti, A. “Growth of microvessels in serum-free matrix culture of rat aorta.” Lab. Invest. 63:115-122. 1990) for capillary growth ex vivo was used. The assay is based on the phenomenon of endothelial cells proliferation from freshly prepared aorta placed into collagen matrix gel, that finally formed new capillary system.
The experiments were carried out on two lines of animals—Sabra and Sprague-Dawley rats, males of 200-250 g-body weight (1-2 month old). Rats were acclimated to vivarium for 4-10 days before their use in study protocol. Each group (from 2 to 4) of the animals was housed in separate cage and fed food and water ad libitum.
Animals were sacrificed by decapitation after ether anesthesia Thoracic aortas were dissected and immediately transferred to a Petri dish with bio-mpm-1. The fibroadipose tissue and small vessels around aorta was carefully removed under a dissecting microscope, 1 mm-long aortic rings were sectioned and extensively (2-3 times) rinsed in bio-mpm-1 containing antibiotics (% cat.) (Nicosia and Ottinetti, 1990).
The collagen matrix gel solution (see above) was added to 24-well plate (0.4 ml to each well) and collagen polymerization was allowed for 15 min at 37° C. The aorta rings were transferred to the collagen gel solution (in order to glue them to the bottom layer of the gel) and then placed to the center of each well. In mice, 3 rings are embedded in the same well. After 15 min incubation of the plates at 37° C. another 0.4 ml of the collagen solution was carefully added on the top of the ring. After the gel is formed 0.4 ml of Serum-Free Endothelial Growth Medium (Rhenium, cat. 17601-030) or bio-mpm-1 (Beit Haemeq cat. 05-060-1) was added to each well. Rings were incubated in 37° c. and 10% CO2. Medium is replaced every 2-3 days.
Compound of the invention were added next day after collagen gel formation in concentration 10-20 uM. compounds were dissolved for 10 mM stock in 100% DMSO. Dilution in 0.1% BSA in PBS to 400 uM stock were done for each AR experiment de novo. The compounds were re-added to AR during each medium changing till well developed capillary system in control or experimental wells.
Fixation was carried out by adding of Buffered Formalin 4% (was obtained from BioLab, cat. 66554) 1.5 ml in each well. An hour later solution was changed to fresh Formalin in order to better fixation (overnight).
We used Crystal Violett (Gencian Violett) 0.02% in Ethanol Abs. as staining solution (1 ml for each well overnight at room temperature). After staining, wells were washed massively with 0.02% Sodium Azide water solution during two or three days till transparent matrix.
Digital pictures were analyzed using ImagePro™ software. The total capillary length of at least 6 AR was measured. Dividing the total capillary length to AD diameter normalized the data.

Another test concerns cornea of mice. Briefly: Eye assay (neovascularization in the cornea after pellet implantation). Format: in vivo. Conditions: five days after implantation; for blood vessels course of growth: FIG. 10. Here is the method:
The modification of the assay previously described in “A model of angiogenesis in the mouse cornea” B. M. Kenyon, E. E. Voest, C. C. Chen, E. Flynn J. Folkman and R. J. D'Amato Investigative Ophthalmology & Visual Science, July 1996, Vol. 37, No. 8 1625-1632 was used. The assay is based on the phenomena of formation of new blood vessels in the cornea of mice in response to the implantation in the cornea of a pellet impregnated with FGF.
1. To prepare—Hydron concentrated stock solution (120 mg/ml in ethanol Abs.) • Hydron diluted stock solution (60 mg/ml in ethanol Abs.) • sucralfate stock solution (500 mg/ml in solution S sterile!). • 10 mg peptide.
2. Add 30 μl of solution S to peptide (or 10 μl of solution S and 20 μl of FGF).
3. Add 20 μl of sucralfate stock solution—vortex, speedvac for 5 min (more if needed).
4. Add […] hydron diluted stock solution to sucralfate+FGF+peptide pellet.
Mice were anesthetized with Ketamin/Rompun Solution (for dosage and solutions preparation see standard anesthetic procedure). The eye is topically anesthetized with Localin (Benoxynate HCl 0.4%, Dr. Fisher, Pharmaceutical Labs, P.O.B. 39071, Tel-Aviv 61390). Using a binocular microscope, a central intrastromal linear keratotomy is performed with a surgical blade parallel to the insertion of the lateral rectus muscle. Approximate length of the cut is 0.5-0.6 mm length. The globe is proptosed with a forceps. A lamellar micropocket is dissected toward the temporal limbus using the modified von Graefe knife 2×30 mm. All following procedures must be done without proptosis. A pellet is placed on the corneal surface in the base of the pocket and advanced to the temporal end of the pocket with one arm of the forceps. The distance between pellet and limbal vessel is measured. For FGF containing pellets, the pocket must be extended within 1 mm of the limbus. Antibiotic and antimycotic ointment are applied to the operated eye to prevent infection and additional irritation of the cornea.
Measurements were done at 5th and 7th days after implantation. In the case of high stimulation inspections were done twice a week till full degradation. The maximum vessel length of neovascularization zone, extending from the limbal vessel toward the pellet was measured. The econtiguous circumferential zone of neovascularization was measured as clock hours (where 30° are equals 1 clock hour.)

The subject of test [1] is B16 cells. The experiment in a line: Melanogenesis in B16 cells (melanin, absorbance 405 nm). The test is classed as cell-based. As to conditions: tbi formulation; for pEC50: read-out: EC 50 melanogenesis; for melanogenesis induction: β3-derived peptides up to 2.5 μM, FIG. 14-18. The procedure:
(§1) B16 melanocyet cells were grown in DMEM with 4 mM L-glutamine, supplemented with 10% bovine calf serum in a 37° C. humidified incubator with 5% CO2. The day before the assays, 100 μl of 3×10^4 cells/ml were plated in 96-well microtiter plates overnight.
The day after B16 cells culturing, differential concentrations of stimulator (peptides or αMSH as positive control) were added. The cells were incubated for another 3 days then adding 70 ul of 1N NaOH stopped the reaction. The production of melanin was measured after 24 h as the optical absorbance in […].
“tbi” Formulation: peptides (10 mM final) were dissolved in DMSO (final 8%) and 2M Ammonium Bicarbonate (32% final) were added, the mixture was heated for 40 min then 2M HEPES pH 7.5 60% (final) were added.

The test system of another test is 3T3L1 adipocytes cells. Briefly: cAMP assay in 3T3L1 adipocytes cells. Conditions: FIG. 13. The test is classed as cell-based. The procedure:
3T3L1 fibroblast were maintained in DMEM with 4 mM L-glutamine, supplemented with 10% calf serum in a 37° C. humidified incubator with 5% CO2. To differentiate fibroblast into adipocytes, cells were grown for 2 days after confluence. The media was then changed to DMEM containing 10% fetal bovine serum; 0.5 mM isobutylmethlxanthine; 4 μg/ml dexamethasone. 3 days later cells were maintained in DMEM containing 10% fetal bovine serum for two weeks, after which the cells were used for cAMP assay.
[…] The incubation was stopped by replacing the medium with lysis regent supplied in a commercial cAMP kit.
(§2) cAMP levels were determined using cAMP enzymeimmunoassay (EIA) system Biotra Amersham Pharmacia Biotech.

In test [2] the test system is β2-adrenergic transfected HEK293 cells. Briefly: cAMP assay in β2-adrenergic transfected HEK293 cells. The test is classed as cell-based. Conditions: 10 μM peptide, after 1 h, FIG. 11. Here is the method: The HEK293 cells were grown in Dulbecco's Modified Eagle's medium (DMEM) with 4 mM L-glutamine, supplemented with 10% horse serum in a 37° C. humidified incubator with 5% CO2. HEK293 cells were transfected using the fuGENE 6 Transfection Reagent. The following amounts of each expression plasmid were used for transfection of each well in a 6-well culture plate: 3 ug of pBK-flag β2AR; 3 ug of pRK5-GRK2 or in combination of 1.5 ug of pBK-flag β2AR and pRK5-GRK2. Cells were harvested after 24 h and transferred into 96-well culture plate (10^5 cells/ml) and a cAMP assay was carried out 48 h post transfection.
(§3) At the day of the assay medium was replaced with serum free medium containing 0.5 mM 3-isobutyl-methylxanthine and the experimental peptides were added for 60 min. The incubation was stopped by replacing the medium with lysis regent supplied in a commercial cAMP kit.
as §2
For orientation: cAMP levels reflect the balance of adenylyl cyclase and phosphodiesterase activity.

The subject of test [3] is B16 cells. Briefly: cAMP assay in B16 cells. Format: cell-based. Conditions: 10 μM peptide, after 1 h, FIG. 12. Here is the method:
as §1, §3, §2

The record followed here is US7683031B2, “Short peptides from the ‘2nd loop’ of 7 transmembrane receptor which selectively modulate signal transduction” (Yissum Research Development Company of the Hebrew …, priority 2002, dated 2010).

pEC50: −log10 of the molar value.

Consider “R002L103: peptide based on sequence SEQ ID NO:3 of the 2nd loop of EDG3 (FIG. 1A) (MRPYDANKR)”, for which the “angiogenesis in aortic rings” value in the test on aortic ring (10 μm and 20 μm R002L103, degree at least equal to that of S1P 100 nm, FIG. 3) is “increase angiogenesis in a dose dependent manner”. Also, the capillary length result is on record as “decreased” in the test on aortic ring (20 μm, FIG. 2) and “increased” in the test on aortic ring (from control to 10 μm, FIG. 2). Also, the “neovascularization effect, each agent alone” value (“neovascularization effect” for short) in the test with aortic ring (FGF 10 ng/ml, FIG. 8) is on record as “no effect”; in the test on aortic ring (SCF 30 nm/ml, FIG. 7) it was “no neovascularization effect”. Moreover, the “neovascularization, combination with FGF” value with aortic ring (R002L103 20 μg + FGF 10 ng/ml, FIG. 8) is on record as “very significant neovascularization”. Besides, the “neovascularization, combination with SCF” value in the test on aortic ring (R002L103 20 μg + SCF 30 nm/ml, FIG. 7) was “marked synergism and significant neovascularization”. Also, in the test with aortic ring (R002L103 20 μg + VEGF 12 nm/ml, FIG. 6), the “neovascularization, combination with VEGF” value was “marked and significant neovascularization”. In addition, the “aortic ring neovascularization in presence of G-protein inhibitor PTX” value in the test with aortic ring is “completely blocked”. Besides, the aortic ring neovascularization entry in the test with aortic ring is “caused neovascularization”. Further, the “angiogenetic effect, each agent alone” value with aortic ring (FIG. 6) was “hardly any angiogenetic effect”. The capillary thickness entry in the test on aortic ring (various concentrations of R002L103, FIG. 2) is given as “directly correlated to the concentration”. The “neovascularization in the eye in response to implantation of a pellet” value with cornea of mice (FIG. 9) is recorded as “marked neovascularization”. In addition, in the test on cornea of mice (FIG. 9), the “number of blood vessels compared to VEGF” value is “larger number of blood vessels”. The “blood vessels course of growth” value with cornea of mice is recorded as “relatively straight”.
With VEGF, in the test with aortic ring (FIG. 6), the “angiogenetic effect, each agent alone” value was “hardly any angiogenetic effect”. For the same compound, the “neovascularization in the eye in response to implantation of a pellet” value in the test with cornea of mice (FIG. 9) is on record as “able to induce neovascularization”. Besides, in the test with cornea of mice, the “blood vessels course of growth” value is “more coiled”.
Take “LGLLRRHSI [K024H124, MC1 receptor Loop 2 derived-modified peptide]”: in the test with B16 cells [1], the pEC50 is 6.82 and the melanogenesis induction result is on record as “very efficient in inducing melanogenesis”.
Regarding SCF: another pro-angiogenetic compound, in the test on aortic ring (SCF 30 nm/ml, FIG. 7), the “neovascularization effect” value is recorded as “no neovascularization effect”.
Turning to “R013L102: β3-adrenergic Loop 2 derived peptide (GLRYGALVTK)”, the “level of cAMP increase” value with 3T3L1 adipocytes cells (after 120 min of incubation) was “did not affect”. For the same compound, in the test with B16 cells [1], the melanogenesis induction result is given as “failed as melanogenesis inducers”.
Turning to “R013L101: β3-adrenergic Loop 2 derived peptide (GNPLRYGALVT)”, the “cAMP production comparing to the control level” value came to 140% in test [2] and 900% with B16 cells [3]. Moreover, the “level of cAMP increase” value in the test on 3T3L1 adipocytes cells (after 60 min of incubation) is given as 18 fold. Also, the melanogenesis induction result with B16 cells [1] was “failed as melanogenesis inducers”.
Turning to “FGF: pro-angiogenetic compound; bFGF, human recombinant, in materials”, in the test with aortic ring (FGF 10 ng/ml, FIG. 8), the “neovascularization effect” value was “no effect”.
Consider `CCCCCCCCCCCCC/C=C/[C@@H](O)[C@@H](N)COP(=O)(O)O` [S1P, sphingosine-1-phosphate, reference compound], for which, in the test on aortic ring, the “aortic ring neovascularization in presence of G-protein inhibitor PTX” value is on record as “completely blocked” and the aortic ring neovascularization result is recorded as “caused neovascularization”.
In the case of “R013L103: β3-adrenergic Loop 2 derived peptide (GPLRYGALVT)”, the “cAMP production comparing to the control level” value (in test [2]; with B16 cells [3]) was “did not affect” in each case. Further, the “level of cAMP increase” value with 3T3L1 adipocytes cells (after 120 min of incubation) was 18 fold. Besides, in the test with B16 cells [1], the melanogenesis induction result is “failed as melanogenesis inducers”.
Regarding “GLLRRHS [K024H107, MC1 receptor Loop 2 derived-modified peptide]”, in the test with B16 cells [1], the pEC50 is 5.70 and the melanogenesis induction entry is “very efficient in inducing melanogenesis”.
